Legend:
[1] = stability test of aqueous solution, ratio of compound remaining after storage (HPLC); type: physicochemical; conditions: 2 mass % in purified water, glass bottle, 40° C., light-shielding, 10 days
Procedure: (under light-shielding condition) for 10 days. The ratio of the compound remaining after the storage was analyzed by using a high-performance liquid chromatograph equipped with Shodex (registered trademark of Showa Denko K.K.) SB802.5 HQ (mfd. by Showa Denko K.K.) column.
(Measurement Conditions for High-Performance Liquid Chromatography)

[2] = test system: guinea pig incised wound; assay: collagen synthesis-accelerating effect in guinea pig model system having an incised wound; type: in vivo; conditions: for Detachment tension / Hydroxyproline content: 0.2 ml test solution twice a day for four days (1) 2%; 2) and 3) 1%); for Detachment tension: incised wound on back; for Hydroxyproline content: skin section with incised wound, index of collagen; for effect on collagen synthesis and recovery of incised wound (in words): guinea pig incised wound
Excerpt: The collagen synthesis-accelerating effects of the following 1) to 3) test substances was compared with each other, by using a guinea pig model system having an incised (or cut) wound. The base material for dissolving each test substance was purified water containing 20% of ethanol, and 3% of propylene glycol. In this experiment, two incised wounds each having a length of 2 cm were formed on the back of a guinea pig by using a scalpel, so that the incised wounds are positioned symmetrically with regard to the center portion of the back. Then, 0.2 ml of the test substance solution was administered thereto twice a day, for four days. After the last administration was completed, a skin piece of 2 cm×2 cm (square shape) was surgically removed from the back of the guinea pig, so that the incised wound portions were positioned substantially at the center of the skin piece. Then, the tension required for the detachment of the incised wound surface was measured. Five guinea pigs were used with respect to one kind of the test substances. […] After the separation thereof by centrifugation, the resultant supernatant was freeze-dried. The protein content of the thus obtained skin sample was hydrolyzed with hydrochloric acid, and was subjected to amino acid analysis by use of AccQ.Tag Amino acid Analyzer (mfd. by Waters Co.). The results of the detachment tension measurement for the incised wound portion to which each test substance had been applied, and the hydroxyproline content thereof were as follows. Herein, the hydroxyproline is a substance which can be taken as an index of collagen.

[3] = test system: human skin tissue three-dimensional model (TESTSKIN LSD-d); assay: amount of ascorbic acid in human skin tissue three-dimensional model after application of test solution; type: cell-based; conditions: for amount of the ascorbic acid, 2 hours after culture / amount of the ascorbic acid, 6 hours after culture / amount of the ascorbic acid, 12 hours after culture: 40 μL test solution in Dulbecco PBS(−) applied 2 h (1) 2%; 2) and 3) 0.5%), removed; for amount of the ascorbic acid, 2 hours after culture: then cultured 2 hours; for amount of the ascorbic acid, 6 hours after culture: then cultured 6 hours; for amount of the ascorbic acid, 12 hours after culture: then cultured 12 hours; for concentration of ascorbic acid in the tissue (in words): administered to the skin model
Procedure: To the surface of a human skin tissue three-dimensional model (trademark: TESTSKIN LSD-d, mfd. by Toyobo Co., Ltd.), 40 μL of a solution which had been obtained by dissolving each of the substances (1) to (3) to be tested in Dulbecco PBS (−), and the resultant skin tissue model was cultured at 37° C. in the presence of 5% CO2 for two hours. Then, the test solution was removed by aspiration, and thereafter the skin tissue model was cultured at 37° C. in the presence of 5% CO2 for 2, 6 and 12 hours, respectively.
Each of the portions of the skin model which had been sampled at each culture time was washed with Dulbecco PBS (−), the surface portion was punched out by using a punch having a diameter of 6 mm φ, and homogenized in a HEPES buffer solution (pH 7.2) to obtain a homogenate. By use of the thus obtained homogenate, the amount of the ascorbic acid contained in the skin model was quantitatively analyzed by using a high performance liquid chromatography. The protein content in the skin model was quantitatively analyzed by using the Lowry method.
Measurement Conditions for High Performance Liquid Chromatography

Row | SMILES | Residual Ratio (%) [1] [%] | Detachment tension [2] [g/cm] | Hydroxyproline content [2] [nmol/skin wet weight] | amount of the ascorbic acid, 2 hours after culture [3] [nmol/mg skin protein] | amount of the ascorbic acid, 6 hours after culture [3] [nmol/mg skin protein] | amount of the ascorbic acid, 12 hours after culture [3] [nmol/mg skin protein] | concentration of ascorbic acid in the tissue (in words) [3] | effect on collagen synthesis and recovery of incised wound (in words) [2]
1 | CCCCCCCCCCCCCCCC(=O)OC[C@H](O)[C@H]1OC(=O)C(OP(=O)(O)O)=C1O.[Na] [Comparative Example A-1, L-ascorbic acid-2-phosphoric acid-6-palmitatic acid ester sodium salt, reference compound] | 88.6 |  |  |  |  |  |  | 
2 | O=C1O[C@H]([C@@H](O)CO)C(O)=C1OP(=O)([O-])[O-].[Na+].[Na+] [Comparative Example A-2, L-ascorbic acid-2-phosphate sodium salt, reference compound] | 96.9 | 123 | 32.1 |  |  |  |  | 
3 | CCCCCCCCC(CCCCCC)C(=O)OC[C@H](O)[C@H]1OC(=O)C(OP(=O)(O)O)=C1O.[Na] (stereo partly drawn) [Example A-1, L-Ascorbic acid-2-phosphoric acid-6-(2′-hexyldecanoate) sodium salt] | 95.3 | 181 | 38.5 | 6 | 10 | 23 | concentration of the ascorbic acid in the tissue could easily be enhanced effectively | had an effect of accelerating the collagen synthesis
4 | CCCCCCCCCC(CCCCCCC)C(=O)OC[C@H](O)[C@H]1OC(=O)C(OP(=O)(O)O)=C1O.[Na] (stereo partly drawn) [Example A-2, L-Ascorbic Acid-2-Phosphoric Acid-6-(2′-n-Heptylundecanoate) sodium salt] | 95.5 | 187 | 37.6 | 5 | 11 | 26 | concentration of the ascorbic acid in the tissue could easily be enhanced effectively | had an effect of accelerating the collagen synthesis

From patent US20060100177A1, “Stabilized ascorbic acid derivatives” (priority 2002, published 2006)
